Laboratory results published in patent publication US20110053916A1 (Vertex Pharmaceuticals Incorporated, priority 2009, published 2011).

biological target: T1, PknB (Mycobacterium tuberculosis, UniProt P9WI81); experiment: biochemical; parameters: species or system M. tuberculosis; settings: 3 nM PknB, 6 uM GarA, 3 μM ATP, 30 min; competitive tight-binding fit; several symbols in a cell = repeat determinations
T1 construct: made in house
T1 sequence (P9WI81 whole entry): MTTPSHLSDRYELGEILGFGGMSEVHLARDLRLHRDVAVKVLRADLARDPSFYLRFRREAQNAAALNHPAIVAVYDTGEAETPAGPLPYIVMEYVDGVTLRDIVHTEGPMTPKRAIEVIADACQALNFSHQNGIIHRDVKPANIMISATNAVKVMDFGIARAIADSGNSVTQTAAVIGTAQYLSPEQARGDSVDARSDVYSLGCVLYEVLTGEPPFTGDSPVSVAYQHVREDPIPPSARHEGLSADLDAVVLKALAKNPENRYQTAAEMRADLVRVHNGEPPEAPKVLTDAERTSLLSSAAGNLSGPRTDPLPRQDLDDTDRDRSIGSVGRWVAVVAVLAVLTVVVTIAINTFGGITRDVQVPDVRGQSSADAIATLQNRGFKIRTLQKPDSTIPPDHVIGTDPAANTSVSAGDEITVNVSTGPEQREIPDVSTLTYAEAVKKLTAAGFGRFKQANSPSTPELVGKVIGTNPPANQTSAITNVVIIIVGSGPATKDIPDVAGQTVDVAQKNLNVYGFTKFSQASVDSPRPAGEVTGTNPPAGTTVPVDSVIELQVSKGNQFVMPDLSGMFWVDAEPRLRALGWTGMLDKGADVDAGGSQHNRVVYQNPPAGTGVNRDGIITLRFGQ

Row | Structure (SMILES) | Ki Values
1 | NS(=O)(=O)c1ccc(-c2ncc(CCO)c(Nc3cc(C4CC4)[nH]n3)n2)s1 [Compound 239, 5-(4-(5-cyclopropyl-1H-pyrazol-3-ylamino)-5-(2-hydroxyethyl)pyrimidin-2-yl)thiophene-2-sulfonamide] | A*, B**
2 | NS(=O)(=O)C/C=C/c1cccc(Nc2cc(C3CC3)[nH]n2)n1 [Compound 270, 3-[6-[(5-cyclopropyl-1H-pyrazol-3-yl)amino]-2-pyridyl]prop-2-ene-1-sulfonamide] | B**, B*, B*, B*
3 | N#Cc1cc(Nc2cc(C3CC3)n[nH]2)nc(-c2ccc(S(N)(=O)=O)s2)n1 [Compound 295, 5-[4-cyano-6-[(5-cyclopropyl-2H-pyrazol-3-yl)amino]-pyrimidin-2-yl]thiophene-2-sulfonamide] | A**, B**

same assay, conditions: 3 nM PknB, 6 uM GarA, 3 μM ATP, 30 min; competitive tight-binding fit; several symbols in a cell = repeat determinations; read-out: Ki Values

Row | Structure (SMILES) | Ki
4 | CC(=O)Nc1cnc(-c2ccc(S(N)(=O)=O)s2)nc1Nc1cc(C2CC2)[nH]n1 [Compound 241, N-[4-[(5-cyclopropyl-1H-pyrazol-3-yl)amino]-2-(5-sulfamoyl-2-thienyl)-pyrimidin-5-yl]acetamide] | 0.05 to 0.1 µM
5 | C#Cc1cnc(-c2ccc(C(O)CCO)s2)nc1Nc1cc(C2CC2)[nH]n1 (stereo not shown) [Compound 242, 1-(5-(4-(5-cyclopropyl-1H-pyrazol-3-ylamino)-5-ethynylpyrimidin-2-yl)thiophen-2-yl)propane-1,3-diol] | 0.01 to 0.05 µM
6 | C#Cc1cnc(-c2ccc(C(O)CCOC(C)=O)s2)nc1Nc1cc(C2CC2)[nH]n1 (stereo not shown) [Compound 243, 3-(5-(4-(5-cyclopropyl-1H-pyrazol-3-ylamino)-5-ethynylpyrimidin-2-yl)thiophen-2-yl)-3-hydroxypropyl acetate] | 0.01 to 0.05 µM
7 | C#Cc1cnc(N2CCCCC2C(=O)OC)nc1Nc1cc(C2CC2)[nH]n1 (stereo not shown) [Compound 244, methyl 1-[4-[(5-cyclopropyl-1H-pyrazol-3-yl)amino]-5-ethynyl-pyrimidin-2-yl]piperidine-2-carboxylate] | > 4 µM
8 | C#Cc1cnc(N2CCCCC2C(=O)O)nc1Nc1cc(C2CC2)n[nH]1 (stereo not shown) [Compound 245, 1-[4-[(5-cyclopropyl-2H-pyrazol-3-yl)amino]-5-ethynyl-pyrimidin-2-yl]piperidine-2-carboxylic acid] | > 4 µM
9 | C#Cc1cnc(-c2ccc(C(=O)C(=O)O)s2)nc1Nc1cc(C2CC2)[nH]n1 [Compound 246, 2-[5-[4-[(5-cyclopropyl-1H-pyrazol-3-yl)amino]-5-ethynyl-pyrimidin-2-yl]-2-thienyl]-2-oxo-acetic acid] | 0.01 to 0.05 µM
10 | NS(=O)(=O)c1ccc(-c2ncc(Cl)c(Nc3cc(-c4ccco4)[nH]n3)n2)s1 [Compound 247, 5-[5-chloro-4-[[5-(2-furyl)-1H-pyrazol-3-yl]amino]-pyrimidin-2-yl]thiophene-2-sulfonamide] | 0.1 to 0.5 µM
11 | C#Cc1cnc(N2CCCN(C)CC2)nc1Nc1cc(C2CC2)[nH]n1 [Compound 248, N-(5-cyclopropyl-1H-pyrazol-3-yl)-5-ethynyl-2-(4-methyl-1,4-diazepan-1-yl)-pyrimidin-4-amine] | > 4 µM
12 | C#Cc1cnc(C2=CCNCC2)nc1Nc1cc(C2CC2)[nH]n1 [Compound 249, N-(5-cyclopropyl-1H-pyrazol-3-yl)-5-ethynyl-2-(1,2,3,6-tetrahydropyridin-4-yl)pyrimidin-4-amine] | > 4 µM
13 | NNS(=O)(=O)c1ccc(-c2ncc(Cl)c(Nc3cc(C4CC4)[nH]n3)n2)s1 [Compound 251, 5-(5-chloro-4-(5-cyclopropyl-1H-pyrazol-3-ylamino)pyrimidin-2-yl)thiophene-2-sulfonohydrazide] | 0.01 to 0.05 µM
14 | CC(C)(C)NS(=O)(=O)c1ccc(-c2ncc(NC=O)c(Nc3cc(C4CC4)[nH]n3)n2)s1 [Compound 253, N-[4-[(5-cyclopropyl-1H-pyrazol-3-yl)amino]-2-[5-(tert-butylsulfamoyl)-2-thienyl]-pyrimidin-5-yl]formamide] | 0.1 to 0.5 µM
15 | C#Cc1cnc(-c2ccc(S(C)(=O)=O)s2)nc1Nc1cc(C2CC2)[nH]n1 [Compound 255, N-(5-cyclopropyl-4H-pyrazol-3-yl)-5-ethynyl-2-(5-(methylsulfonyl)thiophen-2-yl)pyrimidin-4-amine] | 0.001 to 0.01 µM
16 | C#Cc1cnc(N2CCCN(C(C)=O)CC2)nc1Nc1cc(C2CC2)n[nH]1 [Compound 258, 1-[4-[4-[(5-cyclopropyl-2H-pyrazol-3-yl)amino]-5-ethynyl-pyrimidin-2-yl]-1,4-diazepan-1-yl]ethanone] | 0.1 to 0.5 µM
17 | NS(=O)(=O)c1ccc(-c2ncc(Cl)c(Nc3cc(C4CCN(C(=O)OCc5ccccc5)C4)n[nH]3)n2)s1 (stereo not shown) [Compound 262, benzyl 3-[5-[[5-chloro-2-(5-sulfamoyl-2-thienyl)-pyrimidin-4-yl]amino]-1H-pyrazol-3-yl]pyrrolidine-1-carboxylate] | 1 to 2 µM
18 | NS(=O)(=O)c1ccc(-c2ncc(Cl)c(Nc3cc(C4CCNC4)n[nH]3)n2)s1 (stereo not shown) [Compound 263, 5-[5-chloro-4-[(5-pyrrolidin-3-yl-2H-pyrazol-3-yl)amino]-pyrimidin-2-yl]thiophene-2-sulfonamide] | > 4 µM
19 | C[S+]([O-])c1ccc(-c2ncc(Cl)c(Nc3cc(C4CC4)[nH]n3)n2)s1 (stereo not shown) [Compound 264, 5-chloro-N-(5-cyclopropyl-1H-pyrazol-3-yl)-2-(5-methylsulfinyl-2-thienyl)-pyrimidin-4-amine] | 0.001 to 0.01 µM
20 | CC(C)(C)NS(=O)(=O)C/C=C/c1cccc(Nc2cc(C3CC3)[nH]n2)n1 [Compound 269, 3-[6-[(5-cyclopropyl-1H-pyrazol-3-yl)amino]-2-pyridyl]-N-tert-butyl-prop-2-ene-1-sulfonamide] | 0.1 to 0.5 µM

Row | Structure (SMILES) | Ki
21 | CC(C)(C)NS(=O)(=O)c1ccc(-c2cccc(Nc3cc(C4CC4)[nH]n3)n2)s1 [Compound 271, 5-[6-[(5-cyclopropyl-1H-pyrazol-3-yl)amino]-2-pyridyl]-N-tert-butyl-thiophene-2-sulfonamide] | 0.01 to 0.05 µM
22 | NS(=O)(=O)c1ccc(-c2cccc(Nc3cc(C4CC4)[nH]n3)n2)s1 [Compound 272, 5-[6-[(5-cyclopropyl-1H-pyrazol-3-yl)amino]-2-pyridyl]thiophene-2-sulfonamide] | 0.001 to 0.01 µM
23 | CC(C)(C)NS(=O)(=O)c1ccc(-c2ccc([N+](=O)[O-])c(Nc3cc(C4CC4)n[nH]3)n2)s1 [Compound 274, 5-[6-[(5-cyclopropyl-2H-pyrazol-3-yl)amino]-5-nitro-2-pyridyl]-N-tert-butyl-thiophene-2-sulfonamide] | 0.05 to 0.1 µM
24 | Nc1ccc(-c2ccc(S(N)(=O)=O)s2)nc1Nc1cc(C2CC2)n[nH]1 [Compound 276, 5-[5-amino-6-[(5-cyclopropyl-2H-pyrazol-3-yl)amino]-2-pyridyl]thiophene-2-sulfonamide] | 0.001 to 0.01 µM
25 | O=C1/C=C\c2c(n[nH]c2C2CC2)Nc2nc(ncc2Cl)-c2ccccc21 [Compound 277, chloro-cyclopropyl-BLAHone] | > 4 µM
26 | CC(C)(C)NS(=O)(=O)c1ccc(-c2nc(Nc3cc(C4CC4)[nH]n3)cc(C(=O)O)n2)s1 [Compound 278, 6-[(5-cyclopropyl-1H-pyrazol-3-yl)amino]-2-[5-(tert-butylsulfamoyl)-2-thienyl]-pyrimidine-4-carboxylic acid] | 0.1 to 0.5 µM
27 | CS(=O)(=O)NCc1ccc(-c2ncc(Cl)c(Nc3cc(C4CC4)n[nH]3)n2)s1 [Compound 280, N-[[5-[5-chloro-4-[(5-cyclopropyl-2H-pyrazol-3-yl)amino]-pyrimidin-2-yl]-2-thienyl]methyl]methanesulfonamide] | 0.01 to 0.05 µM
28 | NS(=O)(=O)c1ccc(-c2ncc(/C=C/CO)c(Nc3cc(C4CC4)[nH]n3)n2)s1 [Compound 281, (E)-5-(4-(5-cyclopropyl-1H-pyrazol-3-ylamino)-5-(3-hydroxyprop-1-enyl)pyrimidin-2-yl)thiophene-2-sulfonamide] | 0.001 to 0.01 µM
29 | CN(C)c1cc(Nc2cc(C3CC3)n[nH]2)nc(-c2ccc(S(N)(=O)=O)s2)n1 [Compound 282, 5-[4-[(5-cyclopropyl-2H-pyrazol-3-yl)amino]-6-dimethylamino-pyrimidin-2-yl]thiophene-2-sulfonamide] | 2 to 4 µM
30 | NS(=O)(=O)c1ccc(-c2nc(Nc3cc(C4CC4)[nH]n3)cc(C(=O)O)n2)s1 [Compound 283, 6-[(5-cyclopropyl-1H-pyrazol-3-yl)amino]-2-(5-sulfamoyl-2-thienyl)-pyrimidine-4-carboxylic acid] | 0.1 to 0.5 µM
31 | NS(=O)(=O)c1ccc(-c2nc(CO)cc(Nc3cc(C4CC4)[nH]n3)n2)s1 [Compound 285, 5-[4-[(5-cyclopropyl-1H-pyrazol-3-yl)amino]-6-(hydroxymethyl)pyrimidin-2-yl]thiophene-2-sulfonamide] | 0.001 to 0.01 µM
32 | CC(C)(C)NS(=O)(=O)c1ccc(-c2nc(CO)cc(Nc3cc(C4CC4)[nH]n3)n2)s1 [Compound 286, 5-[4-[(5-cyclopropyl-1H-pyrazol-3-yl)amino]-6-(hydroxymethyl)pyrimidin-2-yl]-N-tert-butyl-thiophene-2-sulfonamide] | 0.01 to 0.05 µM
33 | CC(=O)c1ccc(-c2ncc(Cl)c(Nc3cc(C4CC4)[nH]n3)n2)o1 [Compound 288, 1-[5-[5-chloro-4-[(5-cyclopropyl-1H-pyrazol-3-yl)amino]-pyrimidin-2-yl]-2-furyl]ethanone] | 0.1 to 0.5 µM
34 | CC(O)c1ccc(-c2ncc(Cl)c(Nc3cc(C4CC4)[nH]n3)n2)o1 (stereo not shown) [Compound 289, 1-[5-[5-chloro-4-[(5-cyclopropyl-1H-pyrazol-3-yl)amino]-pyrimidin-2-yl]-2-furyl]ethanol] | 0.1 to 0.5 µM
35 | CSc1cc(Nc2cc(C3CC3)n[nH]2)nc(-c2ccc(S(N)(=O)=O)s2)n1 [Compound 291, 5-[4-[(5-cyclopropyl-2H-pyrazol-3-yl)amino]-6-methylsulfanyl-pyrimidin-2-yl]thiophene-2-sulfonamide] | 0.1 to 0.5 µM
36 | NS(=O)(=O)c1ccc(-c2nc(Nc3n[nH]c(C4CC4)c3Cl)cc(C(=O)O)n2)s1 [Compound 292, 6-[(4-chloro-5-cyclopropyl-1H-pyrazol-3-yl)amino]-2-(5-sulfamoyl-2-thienyl)-pyrimidine-4-carboxylic acid] | > 4 µM
37 | Cc1nc(-c2ncc(Cl)c(Nc3cc(C4CC4)[nH]n3)n2)sc1C(C)O (stereo not shown) [Compound 296, 1-(2-(5-chloro-4-(5-cyclopropyl-1H-pyrazol-3-ylamino)pyrimidin-2-yl)-4-methylthiazol-5-yl)ethanol] | 0.1 to 0.5 µM
